Data on eight compounds can be found in US9458110B2, “Phenylpyrazole derivatives as potent ROCK1 and ROCK2 inhibitors” (BRISTOL-MYERS SQUIBB COMPANY, priority 2013, dated 2016).

The target in one assay is ROCK1 (Homo sapiens (Human), UniProt Q13464). The assay is described as follows: ROCK assay (Caliper LABCHIP peptide phosphorylation), ROCK1.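 Further: Read-out is separation of phosphorylated from unphosphorylated peptide, with kinase activity inhibition computed at every concentration of a dose-response series.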 The format is biochemical. The conditions noted are these: 5 μM ATP, 1.5 μM peptide substrate.
Sequence of ROCK1 (Q13464 whole entry, species assumed): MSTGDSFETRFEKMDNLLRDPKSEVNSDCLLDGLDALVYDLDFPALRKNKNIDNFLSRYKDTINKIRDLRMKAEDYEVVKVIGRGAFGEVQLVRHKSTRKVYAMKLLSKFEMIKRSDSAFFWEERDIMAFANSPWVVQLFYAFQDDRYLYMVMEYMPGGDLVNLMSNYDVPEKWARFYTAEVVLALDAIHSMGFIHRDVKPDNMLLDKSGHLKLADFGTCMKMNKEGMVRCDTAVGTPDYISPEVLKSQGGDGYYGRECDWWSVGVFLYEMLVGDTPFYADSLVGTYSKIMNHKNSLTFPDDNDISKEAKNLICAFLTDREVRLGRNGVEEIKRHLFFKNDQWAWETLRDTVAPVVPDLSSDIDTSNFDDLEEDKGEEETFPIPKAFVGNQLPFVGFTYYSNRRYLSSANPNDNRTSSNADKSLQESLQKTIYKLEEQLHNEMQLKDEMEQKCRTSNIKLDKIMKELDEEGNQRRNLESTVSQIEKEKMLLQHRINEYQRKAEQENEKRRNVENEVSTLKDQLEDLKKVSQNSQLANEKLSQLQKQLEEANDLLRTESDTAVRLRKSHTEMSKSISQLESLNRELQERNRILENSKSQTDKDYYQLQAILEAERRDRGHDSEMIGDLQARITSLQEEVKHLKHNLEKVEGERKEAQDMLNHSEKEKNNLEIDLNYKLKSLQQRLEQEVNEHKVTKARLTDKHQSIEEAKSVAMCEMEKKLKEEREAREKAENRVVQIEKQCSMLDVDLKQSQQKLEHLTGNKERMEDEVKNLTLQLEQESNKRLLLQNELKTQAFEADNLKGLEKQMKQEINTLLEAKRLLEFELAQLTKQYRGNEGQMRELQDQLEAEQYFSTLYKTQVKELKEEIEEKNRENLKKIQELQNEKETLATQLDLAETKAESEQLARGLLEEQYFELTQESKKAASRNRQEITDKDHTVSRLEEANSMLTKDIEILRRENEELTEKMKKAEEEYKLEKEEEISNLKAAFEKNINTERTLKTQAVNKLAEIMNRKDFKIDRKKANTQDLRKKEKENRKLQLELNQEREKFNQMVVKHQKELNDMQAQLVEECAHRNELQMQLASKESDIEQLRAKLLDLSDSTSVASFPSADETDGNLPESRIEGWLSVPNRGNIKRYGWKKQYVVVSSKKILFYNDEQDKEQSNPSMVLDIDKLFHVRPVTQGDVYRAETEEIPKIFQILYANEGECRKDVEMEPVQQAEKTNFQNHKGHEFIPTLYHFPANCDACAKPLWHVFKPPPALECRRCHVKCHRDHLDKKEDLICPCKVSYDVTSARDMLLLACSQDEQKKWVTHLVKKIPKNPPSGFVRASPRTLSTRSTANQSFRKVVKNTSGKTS
The target in the next assay is ROCK2 (Homo sapiens (Human), UniProt O75116). Nature of the assay: ROCK assay (Caliper LABCHIP peptide phosphorylation), ROCK2.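 Further: reaction stopped with EDTA, then phosphorylated and unphosphorylated peptide resolved by microfluidic electrophoresis, kinase inhibition computed at each compound concentration in dose-response series, DMSO under 2%.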 The assay is classed as biochemical. The conditions noted are these: 5 μM ATP, 1.5 μM peptide substrate.
Sequence of ROCK2 (O75116 whole entry, species assumed): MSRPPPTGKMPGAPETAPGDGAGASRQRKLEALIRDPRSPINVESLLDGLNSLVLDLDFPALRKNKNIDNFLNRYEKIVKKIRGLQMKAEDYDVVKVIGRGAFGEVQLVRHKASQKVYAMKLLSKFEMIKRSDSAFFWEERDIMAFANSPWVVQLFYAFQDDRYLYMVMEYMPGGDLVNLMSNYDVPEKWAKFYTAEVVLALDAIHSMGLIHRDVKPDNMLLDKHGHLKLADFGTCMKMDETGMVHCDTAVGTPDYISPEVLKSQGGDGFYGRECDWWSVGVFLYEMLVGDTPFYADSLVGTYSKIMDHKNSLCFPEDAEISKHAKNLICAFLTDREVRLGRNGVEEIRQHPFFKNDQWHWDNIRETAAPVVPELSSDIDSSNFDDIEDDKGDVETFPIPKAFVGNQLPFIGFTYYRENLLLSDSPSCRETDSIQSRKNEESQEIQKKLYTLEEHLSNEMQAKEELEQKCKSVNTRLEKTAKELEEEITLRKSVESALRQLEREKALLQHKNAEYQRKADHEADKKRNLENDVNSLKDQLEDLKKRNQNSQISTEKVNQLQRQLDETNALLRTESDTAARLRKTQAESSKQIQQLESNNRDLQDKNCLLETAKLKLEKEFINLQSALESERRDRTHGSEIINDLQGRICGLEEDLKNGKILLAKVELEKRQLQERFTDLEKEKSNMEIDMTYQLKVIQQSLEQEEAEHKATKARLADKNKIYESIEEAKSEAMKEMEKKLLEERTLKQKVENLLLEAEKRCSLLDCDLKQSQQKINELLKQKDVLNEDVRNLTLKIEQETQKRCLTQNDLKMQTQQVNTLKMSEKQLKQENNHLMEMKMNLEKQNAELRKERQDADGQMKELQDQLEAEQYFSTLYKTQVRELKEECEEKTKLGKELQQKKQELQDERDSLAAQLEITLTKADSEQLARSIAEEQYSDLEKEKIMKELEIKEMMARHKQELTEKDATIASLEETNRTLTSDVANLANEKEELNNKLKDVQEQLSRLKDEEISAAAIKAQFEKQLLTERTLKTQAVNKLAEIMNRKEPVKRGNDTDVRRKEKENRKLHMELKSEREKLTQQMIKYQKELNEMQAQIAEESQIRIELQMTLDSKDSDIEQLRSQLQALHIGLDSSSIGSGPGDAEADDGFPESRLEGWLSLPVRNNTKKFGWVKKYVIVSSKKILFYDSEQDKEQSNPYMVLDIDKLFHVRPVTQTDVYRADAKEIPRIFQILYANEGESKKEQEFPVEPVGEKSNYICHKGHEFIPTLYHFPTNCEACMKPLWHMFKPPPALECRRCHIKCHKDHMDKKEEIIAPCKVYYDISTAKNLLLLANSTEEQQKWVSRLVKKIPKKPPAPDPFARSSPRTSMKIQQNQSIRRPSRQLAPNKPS
In assay [1] the test system is rat models of hypertension. The conditions noted are these: cited from earlier work.
The subject of another assay is neointimal formation. The following applies: rats, balloon injury model; cited from earlier work.
Assay [2] deals with congestive heart failure in Dahl salt-sensitive rats. The following applies: cited from earlier work.
For assay [3], the system named is IL-1 beta-induced coronary stenosis. The following applies: long term treatment; cited from earlier work.

Where two headings read alike, the source gives them in different places.

For the compound `CCOc1cc(-c2cn[nH]c2)ccc1C(=O)N[C@H](C)c1cccc(OC)c1` [Example 313, 2-ethoxy-N-[(1R)-1-(3-methoxyphenyl)ethyl]-4-(1H-pyrazol-4-yl)benzamide], the IC50 was 21.1 nM on ROCK1 and 1.6 nM against ROCK2.
The corresponding values for `COCCOc1cc(-c2cn[nH]c2)ccc1C(=O)N[C@H](C)c1cccc(OC)c1` [Example 314, 2-(2-methoxyethoxy)-N-[(1R)-1-(3-methoxyphenyl)ethyl]-4-(1H-pyrazol-4-yl)benzamide] are 16.8 nM and 3.37 nM.
As for `COc1cccc([C@@H](C)NC(=O)c2ccc(-c3cn[nH]c3)cc2OCCO)c1` [Example 315, 2-(2-hydroxyethoxy)-N-[(1R)-1-(3-methoxyphenyl)ethyl]-4-(1H-pyrazol-4-yl)benzamide], the IC50 worked out at 7.19 nM at ROCK1 and 2.31 nM at ROCK2.
In the case of `COc1ccc(F)c(C(C)NC(=O)c2ccc(-c3cn[nH]c3)c(C(C)O)c2)c1` (centres unmarked) [Example 316, N-[1-(2-fluoro-5-methoxyphenyl)ethyl]-3-(1-hydroxyethyl)-4-(1H-pyrazol-4-yl)benzamide], the IC50 against ROCK1 worked out at 82.2 nM; against ROCK2, 10.9 nM.
As for `C[C@@H](N)[C@H]1CC[C@H](C(=O)Nc2ccncc2)CC1` [Example Y-27632], the blood pressure result in assay [1] (control rats) is recorded as “only a minor effect on blood pressure”; in assay [1] (spontaneously hypertensive rat, renal hypertensive rat and deoxycortisone acetate salt hypertensive rat models), “significantly decrease blood pressure”. The neointimal formation result in the assay with neointimal formation is “inhibited neointimal formation”. Besides, in assay [2], the “ventricular hypertrophy, fibrosis and function” value is “improve ventricular hypertrophy, fibrosis and function”.
Turning to `O=S(=O)(c1cccc2cnccc12)N1CCCNCC1` [fasudil], the “coronary stenosis and coronary constrictive remodeling” value in assay [3] is recorded as “progressively reduce coronary stenosis, as well as promote a regression of coronary constrictive remodeling”.
Regarding “N-(3- chlorobenzyl)- 3-methoxy-4- (1H-pyrazol-4- yl)benzamide [Example 34]”, the half-inhibitory concentration (IC50) on ROCK1 came to 124 nM; against ROCK2 it was 49.7 nM.
Consider “N-(4- chlorobenzyl)- 3-methoxy-4- (1H-pyrazol-4- yl)benzamide [Example 33]”, for which the IC50 against ROCK1 came out at 26.5 nM; against ROCK2 it was 4.93 nM.

One may read the IC50 as the point on the concentration scale where inhibition reaches its midpoint. Low readings indicate greater potency in that assay, high ones weaker potency in that assay.
